In patent publication US20230248626A1, “Compositions Comprising (Bio)-Alkanediols” (Symrise AG, priority 0001, published 2023):
≈ marks a conversion by molar mass, not a printed value.

What was measured:
Format in all cases: cell-based
[1] = test system: Aspergillus brasiliensis (AB); test: Preservation efficacy test (PET), European Pharmacopoeia 5.1.3
Procedure, shortened: (§1)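 Preparations challenged with prescribed inoculums per European Pharmacopoeia 5.1.3, counting microorganisms after the prescribed time. Adequate preservation means a significant fall or no increase in counts.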

Candida albicans (CA) = test: as above
Procedure, shortened: as §1

[2] = test system: Staphylococcus aureus (SA); test: as above
Procedure, shortened: as §1

Escherichia coli (EC) = test: as above
Procedure, shortened: as §1

[3] = test system: Pseudomonas aeruginosa (PA); test: as above
Procedure, shortened: as §1

Propionibacterium acnes = test: MIC test (growth inhibition, 96 well plates, OD); details: Cutibacterium acnes; read-out: Minimum Inhibitory Concentration (MIC)
Candida albicans = test: MIC test (growth inhibition, 96 well plates, OD); details: read-out: Minimum Inhibitory Concentration (MIC)
Staphylococcus aureus = test: MIC test (growth inhibition, 96 well plates, OD); details: read-out: Minimum Inhibitory Concentration (MIC)
Staphylococcus hominis = test: MIC test (growth inhibition, 96 well plates, OD); details: read-out: Minimum Inhibitory Concentration (MIC)
Escherichia coli = test: MIC test (growth inhibition, 96 well plates, OD); details: read-out: Minimum Inhibitory Concentration (MIC)
Corynebacterium jeikeium = test: MIC test (growth inhibition, 96 well plates, OD); details: read-out: Minimum Inhibitory Concentration (MIC)

- MIC (Propionibacterium acnes): > 5000 µg/mL
- MIC (Candida albicans): 5000 µg/mL (≈ 34.2 mM)
- MIC (Staphylococcus aureus): 5000 µg/mL (≈ 34.2 mM)
- MIC (Staphylococcus hominis): > 5000 µg/mL
- MIC (Escherichia coli): 2500 µg/mL (≈ 17.1 mM)
- MIC (Corynebacterium jeikeium): 5000 µg/mL (≈ 34.2 mM)
SMILES: CCCCCC(O)C(C)O (centres unmarked) [2,3-octanediol]
- number of microorganisms after 2 days ([1]; 0.1% in shampoo): 2,300,000
- number of microorganisms after 7 days ([1]; 0.1% in shampoo): 1,300,000
- number of microorganisms after 14 days ([1]; 0.1% in shampoo): 250,000
- number of microorganisms after 28 days ([1]; 0.1% in shampoo): 250,000
- number of microorganisms after 2 days ([1]; 0.1% in wet wipes solution): 12,000,000
- number of microorganisms after 7 days ([1]; 0.1% in wet wipes solution): 8,500,000
- number of microorganisms after 14 days ([1]; 0.1% in wet wipes solution): 9,300,000
- number of microorganisms after 28 days ([1]; 0.1% in wet wipes solution): 12,000,000
- number of microorganisms after 2 days ([1]; 0.2% in o/w emulsion): 1,700,000
- number of microorganisms after 7 days ([1]; 0.2% in o/w emulsion): 2,000,000
- number of microorganisms after 14 days ([1]; 0.2% in o/w emulsion): 2,100,000
- number of microorganisms after 28 days ([1]; 0.2% in o/w emulsion): 2,000,000
- number of microorganisms after 2 days ([1]; 0.4% in shampoo): 1,100,000
- number of microorganisms after 7 days ([1]; 0.4% in shampoo): 1,100,000
- number of microorganisms after 14 days ([1]; 0.4% in shampoo): 2,100,000
- number of microorganisms after 28 days ([1]; 0.4% in shampoo): 410,000
- number of microorganisms after 2 days (Candida albicans (CA); 0.1% in shampoo): 200,000
- number of microorganisms after 7 days (Candida albicans (CA); 0.1% in shampoo): 19,000
- number of microorganisms after 14 days (Candida albicans (CA); 0.1% in shampoo): 390
- number of microorganisms after 28 days (Candida albicans (CA); 0.1% in shampoo): 1
- number of microorganisms after 2 days (Candida albicans (CA); 0.1% in wet wipes solution): 5,000,000
- number of microorganisms after 7 days (Candida albicans (CA); 0.1% in wet wipes solution): 2,400,000
- number of microorganisms after 14 days (Candida albicans (CA); 0.1% in wet wipes solution): 6,900,000
- number of microorganisms after 28 days (Candida albicans (CA); 0.1% in wet wipes solution): 5,500,000
- number of microorganisms after 2 days (Candida albicans (CA); 0.2% in o/w emulsion): 2,000,000
- number of microorganisms after 7 days (Candida albicans (CA); 0.2% in o/w emulsion): 1,800,000
- number of microorganisms after 14 days (Candida albicans (CA); 0.2% in o/w emulsion): 1,900,000
- number of microorganisms after 28 days (Candida albicans (CA); 0.2% in o/w emulsion): 390,000
- number of microorganisms after 2 days (Candida albicans (CA); 0.4% in shampoo): 44,000
- number of microorganisms after 7 days (Candida albicans (CA); 0.4% in shampoo): 17,000
- number of microorganisms after 14 days (Candida albicans (CA); 0.4% in shampoo): 510
- number of microorganisms after 28 days (Candida albicans (CA); 0.4% in shampoo): 1
- number of microorganisms after 2 days ([2]; 0.1% in shampoo): 2,000
- number of microorganisms after 7 days ([2]; 0.1% in shampoo): 1
- number of microorganisms after 14 days ([2]; 0.1% in shampoo): 1
- number of microorganisms after 28 days ([2]; 0.1% in shampoo): 1
- number of microorganisms after 2 days ([2]; 0.1% in wet wipes solution): 50
- number of microorganisms after 7 days ([2]; 0.1% in wet wipes solution): 50
- number of microorganisms after 14 days ([2]; 0.1% in wet wipes solution): 50
- number of microorganisms after 28 days ([2]; 0.1% in wet wipes solution): 50
- number of microorganisms after 2 days ([2]; 0.2% in o/w emulsion): 1,300,000
- number of microorganisms after 7 days ([2]; 0.2% in o/w emulsion): 84,000
- number of microorganisms after 14 days ([2]; 0.2% in o/w emulsion): 1
- number of microorganisms after 28 days ([2]; 0.2% in o/w emulsion): 1
- number of microorganisms after 2 days ([2]; 0.4% in shampoo): 4,000
- number of microorganisms after 7 days ([2]; 0.4% in shampoo): 1
- number of microorganisms after 14 days ([2]; 0.4% in shampoo): 1
- number of microorganisms after 28 days ([2]; 0.4% in shampoo): 1
- number of microorganisms after 2 days (Escherichia coli (EC); 0.1% in shampoo): 2,600,000
- number of microorganisms after 7 days (Escherichia coli (EC); 0.1% in shampoo): 3,800,000
- number of microorganisms after 14 days (Escherichia coli (EC); 0.1% in shampoo): 1,500,000
- number of microorganisms after 28 days (Escherichia coli (EC); 0.1% in shampoo): 1,300,000
- number of microorganisms after 2 days (Escherichia coli (EC); 0.1% in wet wipes solution): 1,300,000
- number of microorganisms after 7 days (Escherichia coli (EC); 0.1% in wet wipes solution): 2,600,000
- number of microorganisms after 14 days (Escherichia coli (EC); 0.1% in wet wipes solution): 850,000
- number of microorganisms after 28 days (Escherichia coli (EC); 0.1% in wet wipes solution): 1,600
- number of microorganisms after 2 days (Escherichia coli (EC); 0.2% in o/w emulsion): 48,000
- number of microorganisms after 7 days (Escherichia coli (EC); 0.2% in o/w emulsion): 290
- number of microorganisms after 14 days (Escherichia coli (EC); 0.2% in o/w emulsion): 1
- number of microorganisms after 28 days (Escherichia coli (EC); 0.2% in o/w emulsion): 1
- number of microorganisms after 2 days (Escherichia coli (EC); 0.4% in shampoo): 1,100,000
- number of microorganisms after 7 days (Escherichia coli (EC); 0.4% in shampoo): 1,900,000
- number of microorganisms after 14 days (Escherichia coli (EC); 0.4% in shampoo): 2,100,000
- number of microorganisms after 28 days (Escherichia coli (EC); 0.4% in shampoo): 600,000
- number of microorganisms after 2 days ([3]; 0.1% in shampoo): 280,000
- number of microorganisms after 7 days ([3]; 0.1% in shampoo): 3,700,000
- number of microorganisms after 14 days ([3]; 0.1% in shampoo): 13,000,000
- number of microorganisms after 28 days ([3]; 0.1% in shampoo): 8,100,000
- number of microorganisms after 2 days ([3]; 0.1% in wet wipes solution): 1,300,000
- number of microorganisms after 7 days ([3]; 0.1% in wet wipes solution): 630,000
- number of microorganisms after 14 days ([3]; 0.1% in wet wipes solution): 310,000
- number of microorganisms after 28 days ([3]; 0.1% in wet wipes solution): 27,000
- number of microorganisms after 2 days ([3]; 0.2% in o/w emulsion): 1
- number of microorganisms after 7 days ([3]; 0.2% in o/w emulsion): 1
- number of microorganisms after 14 days ([3]; 0.2% in o/w emulsion): 1
- number of microorganisms after 28 days ([3]; 0.2% in o/w emulsion): 1
- number of microorganisms after 2 days ([3]; 0.4% in shampoo): 21,000
- number of microorganisms after 7 days ([3]; 0.4% in shampoo): 1
- number of microorganisms after 14 days ([3]; 0.4% in shampoo): 1
- number of microorganisms after 28 days ([3]; 0.4% in shampoo): 1
